Source: patent US20070213272A1, “Transmucosal Administration Agent Containing Pth” (priority 2004, published 2007)
Several values for one entry are separate records, joined by “and”; a condition that tells them apart may be missing. Equal values may be shown once.

Assays:
[1] = test system: patients; details: subcutaneous administration, Neer et al. 2001; cited from earlier work
[2] = PTH(1-34) level in plasma after caudal vein and subcutaneous administration (pharmacokinetics); type: in vivo, rat
Description: Changes of PTH(1-34) level in plasma by caudal vein administration (iv) and subcutaneous administration (sc) were examined. hPTH(1-34) was diluted with phosphate buffer solution (PBS)/0.05% Tween 80 and adjusted to 10 nmol/ml. Female SD-IGS rats at 8 weeks of age (Charles River Japan, Inc.) were used for the experiment. A single dose administration was carried out by caudal vein administration and subcutaneous administration, and blood was collected from tail vein using a capillary tube for blood collection in a time-dependent manner (at pre-administration, 2.5, 5, 7.5, 10, 15, 30, 60, 90, 120 min.). After EDTA plasma was isolated, the collected blood samples were stored at -80° C. until the hPTH(1-34) level was measured. The PTH(1-34) level was measured by ELISA method using PTH(1-34) (human)-EIA kit (Peninsula Laboratories).

[3] = test system: patients with primary osteoporosis; experiment: Safety evaluation: adverse events and side effects in transnasal clinical study; type: in vivo, human
Description: […] Here, hPTH1-34 transnasal administration formulation was produced by the method in Example 2 of International Patent Publication No. WO02/02136. Using a nebulizer VP-7 (Valois) which uniformly sprays 100 μL of the drug solution by pumping once, one pumping for each nasal cavity, the total of 200 μL of the drug solution was sprayed daily. […] A single dose containing each amount of hPTH(1-34) was administered once a day on consecutive days of 12 weeks, and effectiveness and safety of each amount was confirmed. Safety evaluation: the occurrence number of adverse events was counted and evaluated. In counting adverse and other events, coding to preferred terms (PT) and classification of adverse event names into system organ classes (SOC) were conducted based on “MedDRA Version6.1”.

[4] = rat, iv (caudal vein) single dose, 10 nmol/ml solution, female SD-IGS rats, plasma
[5] = rat, sc single dose, 10 nmol/ml solution, female SD-IGS rats, plasma
[6] = transnasal, all dose groups, 97 subjects for safety evaluation

CC[C@H](C)[C@H](NC(=O)[C@H](CCC(=O)O)NC(=O)[C@H](CO)NC(=O)[C@@H](NC(=O)[C@@H](N)CO)C(C)C)C(=O)N[C@@H](CCC(N)=O)C(=O)N[C@@H](CC(C)C)C(=O)N[C@@H](CCSC)C(=O)N[C@@H](Cc1cnc[nH]1)C(=O)N[C@@H](CC(N)=O)C(=O)N[C@@H](CC(C)C)C(=O)NCC(=O)N[C@@H](CCCCN)C(=O)N[C@@H](Cc1cnc[nH]1)C(=O)N[C@@H](CC(C)C)C(=O)N[C@@H](CC(N)=O)C(=O)N[C@@H](CO)C(=O)N[C@@H](CCSC)C(=O)N[C@@H](CCC(=O)O)C(=O)N[C@@H](CCCN=C(N)N)C(=O)N[C@H](C(=O)N[C@@H](CCC(=O)O)C(=O)N[C@@H](Cc1c[nH]c2ccccc12)C(=O)N[C@@H](CC(C)C)C(=O)N[C@@H](CCCN=C(N)N)C(=O)N[C@@H](CCCCN)C(=O)N[C@@H](CCCCN)C(=O)N[C@@H](CC(C)C)C(=O)N[C@@H](CCC(N)=O)C(=O)N[C@@H](CC(=O)O)C(=O)N[C@H](C(=O)N[C@@H](Cc1cnc[nH]1)C(=O)N[C@@H](CC(N)=O)C(=O)N[C@@H](Cc1ccccc1)C(=O)O)C(C)C)C(C)C [hPTH(1-34)]
frequency of dizziness [1]: 9%
frequency of headache [1]: 13%
frequency of leg cramps [1]: 3%
frequency of nausea [1]: 18%
PK profile of iv administration compared with sc administration ([2]; iv versus sc single dose, rats): more pulse-like PK
AUC [2, 4]: 17.8 ng·h/mL
half-life [2, 4]: 6.9 min
AUC [2, 5]: 3.83 ng·h/mL
Cmax [2, 5]: 9 ng/mL
Tmax [2, 5]: 20 min
half-life [2, 5]: 10.8 min
number of adverse events ([3]; transnasal, 250-μg group): 46 events
number of side effect events ([3]; transnasal, 250-μg group): 12 events
subjects with adverse events ([3]; transnasal, 250-μg group): 71.0%
subjects with side effects ([3]; transnasal, 250-μg group): 22.6%
number of adverse events ([3]; transnasal, 500-μg group): 51 events
number of side effect events ([3]; transnasal, 500-μg group): 10 events
subjects with adverse events ([3]; transnasal, 500-μg group): 76.7%
subjects with side effects ([3]; transnasal, 500-μg group): 26.7%
number of adverse events ([3]; transnasal, 1,000-μg group): 48 events
number of side effect events ([3]; transnasal, 1,000-μg group): 13 events
subjects with adverse events ([3]; transnasal, 1,000-μg group): 69.0%
subjects with side effects ([3]; transnasal, 1,000-μg group): 24.1%
number of adverse events ([3]; transnasal, 1,500-μg group): 10 events
number of side effect events ([3]; transnasal, 1,500-μg group): 2 events
subjects with adverse events ([3]; transnasal, 1,500-μg group): 71.4%
subjects with side effects ([3]; transnasal, 1,500-μg group): 28.6%
frequency of leg cramps ([3]; transnasal, all dose groups): no observation and 0%
frequency of nausea ([3]; transnasal, all dose groups): no observation and 0%
number of side effect events ([3]; transnasal, all dose groups): 37 events
occurrence rate of clinical examination (SOC) ([3]; transnasal, all dose groups): 19.6%
occurrence rate of dizziness ([3]; transnasal, all dose groups): 4.1%
occurrence rate of headache ([3]; transnasal, all dose groups): 7.2%
occurrence rate of heat failure (SOC) ([3]; transnasal, all dose groups): 21.6%
occurrence rate of infectious disease and parasitic disease (SOC) ([3]; transnasal, all dose groups): 18.6%
occurrence rate of nasopharyngitis (PT) ([3]; transnasal, all dose groups): 14.4%
occurrence rate of supraventricular premature beat (PT) ([3]; transnasal, all dose groups): 12.4%
occurrence rate of ventricular premature beat (PT) ([3]; transnasal, all dose groups): 5.2%
side effect events with the occurrence rate of 5% or more ([3]; transnasal, all dose groups): no event
subjects with side effects ([3]; transnasal, all dose groups): 24.7%
number of adverse events [3, 6]: 155 events
subjects with adverse events [3, 6]: 72.2%
